Where two headings read alike, the source gives them in different places.
Key:
[1] = at 100° C.; cited from earlier work
rat = details: cited from earlier work
[2] = Doxorubicin diffusion from coagulated gel in agarose phantom; type: physicochemical; details: 2.0 mg in 0.5 mL gel
Description: Method 1: In a 1% (w/v) agarose gel as phantom, HSA-based #1 gel (0.5 mL) with Doxorubicin HCl (2.0 mg) was placed 1 cm away from a MW antenna at ambient temperature. The ablation was performed at 60 W for 10 minutes (MicroThermX/Varian 915 MHz). Post ablation, the cooled agarose gel was left at ambient temperature for 48 hours for diffusion of the Doxorubicin.
The solution contained 1 (w/v) % agarose phantom. The ablation conditions: 915 MHz, 60 W for 10 minutes.

[3] = In vitro elution of Doxorubicin from coagulated gel (HPLC); type: physicochemical; details: for part of drug eluted out over time: citrate buffer pH 7, 36.5° C.
Description: Methods 2 Absorbance values of three known concentrations of Doxorubicin samples (1.0×10^−6, 9.5×10^−6 and 1.9×10^−5 M) were obtained to established a linear relationship (FIG. 4, Left) using a HPLC system: Agilant 1100; mobile phase=a gradient of ACN and H2O with 1% ammonium acetate; wavelength=500 nm; flow rate=1 mL/min. Each data point was an average of three measurements. Under the HPLC conditions, the retention time of Doxorubicin was at 4.00 minutes. Separately, three different amounts of Doxorubicin (2.1, 1.1 and 0.6 mg) were mixed with HSA-based #1 gel (0.5 mL each) and ablated using the conditions described in Aim 1. Once complete, the coagulated gel impregnated with Doxorubicin was collected and placed in a citrate buffer (5 mL, pH 7) in a water bath at 36.5° C. At 1, 3, 24 and 72 h, a small quantity of solution (0.5 mL) was passed through a membrane filter (cutoff 7 KDa) and injected into the HPLC system to quantify the eluted Doxorubicin. Each data point was triplicated.

[4] = In vitro elution of Resiquimod from coagulated gel (HPLC); type: physicochemical
Description: Methods 3 Absorbance values of three known concentrations of Resiquimod samples (4.3×10−6, 4.3×10−5 and 8.6×10−5 M) were obtained to established a linear relationship (FIG. 23A) using the HPLC system as described in Methods 2 except wavelength=328 nm and the retention time=3.31 min.

[5] = Dielectric properties by open-ended coaxial measurement; type: physicochemical
Text: Materials or formulations with a high dipole moment as potential thermal accelerants can be expressed by the ε″ and σ values for thermal ablation (radiofrequency, microwave, irreversible electroporation. A person skilled in the art will recognize that in order to show the capacity of a material, or formulations of a material, quantitatively as a thermal accelerant, the concept of permittivity can be employed in lieu of, or in addition to, evaluation of dipole moment. For example, materials can be tested using an electromagnetic wave of sinusoidal frequency ω, which is directed at a subject sample by an open-ended coaxial cable of a low-power oscillator. Measurement of the magnitude and phase of the fraction of the wave which is reflected allows deduction of the complex permittivity of the tissue.
The complex permittivity is defined as ε*=ε′−jε″, where ε′ is the real permittivity and ε″ is the imaginary permittivity. […] The real permittivity is also known as the dielectric constant. The imaginary permittivity is also called the loss factor and can be written ε″=σ/(ωε0), so as to incorporate the electrical conductivity of the material, […]. The quantity a directly scales the power deposited per unit volume according to the following expression, ARD=σ|E|^2, where ARD is Absorption Rate Density (watt m^−3), […] is electrical conductivity (ohm^−1 m^−1), and JEJ is the magnitude of the electrical field (volt m^−1) produced by the microwave antenna at the point of interest in the tissue.

[6] = reference values; cited from earlier work

[Cl-].[Cs+] [CsCl, cesium chloride]
solubility in water [1]: 2.7 kg/L | LD50 (rat; iv): 910 mg/kg | LD50 (rat; oral): 2,600 mg/kg

COc1cccc2c1C(=O)c1c(O)c3c(c(O)c1C2=O)C[C@@](O)(C(=O)CO)C[C@@H]3O[C@H]1C[C@H](N)[C@H](O)[C@H](C)O1 [Doxorubicin]
diffusion to the surrounding area of the phantom ([2]; 6 h after ablation): apparent | diffusion out of coagulated gel ([2]; immediately after ablation): no diffusion out of the protein meshwork | part of drug eluted out over time ([3]; 0.6 mg in 0.5 mL gel): 87% | part of drug eluted out over time ([3]; 1.1 mg in 0.5 mL gel): 64% | part of drug eluted out over time ([3]; 2.1 mg in 0.5 mL gel): 57% | elution rate over time ([3]; 1, 3, 24, 72 h): highest at 1 h | part of drug eluted out over time ([4]; 0.063 mg): 87% | part of drug eluted out over time ([4]; 0.63 mg): 64% | part of drug eluted out over time ([4]; 1.25 mg): 57%

O [Water]
Dielectric constant (ε′) ([5]; 915 MHz): 78.3 | electrical conductivity (σ) ([5]; 915 MHz): 0 mho/m | Dielectric constant (ε′) ([5]; 2450 MHz): 76.9 | electrical conductivity (σ) ([5]; 2450 MHz): 0.1

O [Water (deionized)]
Electrical Conductivity (σ) of reference media [6]: 5 × 10^−6 S/m

CO [MeOH, methanol]
Dielectric constant (ε′) ([5]; 915 MHz): 31.2 | electrical conductivity (σ) ([5]; 915 MHz): 0.1 mho/m | Dielectric constant (ε′) ([5]; 2450 MHz): 22.2 | electrical conductivity (σ) ([5]; 2450 MHz): 0.1
